Laboratory results published in patent publication US6709830B2, “Methods for modulating the activation of a lymphocyte expressed G protein coupled receptor involved in cell proliferation, autoimmunity and inflammation” (The Regents of the University of California, priority 1997, dated 2004).
“Also recorded” adds a separate entry of the source.

Legend:
G2A [1] = biological target: T1, G2A (Mus musculus, UniProt Q9Z282); experiment: Calcium assay ([Ca2+]i, Fura-2) in G2A.GFP transfected MCF 10A cells; type: cell-based; settings: for transient increase in [Ca2+]i: LPC 0.1 μM, SPC 0.1 μM, LPA 1 μM, PAF 0.1 μM, ATP 20 μM; for desensitisation to subsequent stimulation with LPC or SPC (1 μM): pretreatment 5 minutes with LPC 1 μM or SPC 10 μM (b23 prints SPC 1.0 μM)
T1 construct: expressed in transfected cells; host or cells: MCF 10A (human breast epithelial cells, no endogenous G2A), plasmid pEXV3 G2A.GFP
T1 sequence (Q9Z282 1-382): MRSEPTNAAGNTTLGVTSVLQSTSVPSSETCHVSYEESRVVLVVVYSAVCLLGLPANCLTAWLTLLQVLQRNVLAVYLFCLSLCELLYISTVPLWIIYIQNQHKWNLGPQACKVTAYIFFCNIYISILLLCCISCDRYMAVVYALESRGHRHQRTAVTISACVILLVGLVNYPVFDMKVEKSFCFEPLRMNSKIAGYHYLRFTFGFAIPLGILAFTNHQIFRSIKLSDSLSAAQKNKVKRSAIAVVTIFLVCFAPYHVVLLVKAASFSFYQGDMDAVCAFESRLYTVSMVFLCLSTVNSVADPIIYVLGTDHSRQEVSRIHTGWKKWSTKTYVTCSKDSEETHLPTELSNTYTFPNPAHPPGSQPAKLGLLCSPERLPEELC
Experimental: (§1) MCF 10A cells were cultured in specialised glass-bottom dishes (Bioptech, Inc., Butler, Pa.) and loaded with Fura-2/AM ([…]; Molecular Probes) at 37° C. for 30 minutes in HEPES buffered saline (pH 7.4) containing 125 mM NaCl, 5 mM KCl, 1.2 mM MgSO4, 11 mM glucose, 1.8 mM CaCl2, 25 mM HEPES, 0.2% BSA. Loaded cells were washed, placed in HEPES buffeted saline without BSA, and incubated for 30 minutes at ambient temperature ensure dye hydrolysis by cytosolic esterases. Using a dual-wavelength spectrofluorometer (RFK-6002, Photon Technology Int'l, So. Brunswick, N.J.) coupled to an inverted fluorescence microscope (Olympus, IX-70, Lake Success, N.Y.), GFP-positive cells were identified using an excitation wavelength of 488 nm, a dichroic 505 nm long-pass and an emitter bandpass of 535 nm (Chroma Technology, Brattleboro, Vt.). [Ca^2+], measurements were performed on individual GFP-positive cells at excitation wavelengths of 340 nm and 380 nm, and an emission wavelength of 510 nm. Prior to data acquisition, background fluorescence (areas without cells) was measured and automatically subtracted from subsequent measurements. Agonists were diluted in HEPES buffered saline and solution changes accomplished by rapidly aspirating the buffer and replacing it with HEPES buffered saline containing the specific agonist. Fura-2 fluorescence signals (340 nm, 380 nm and the 340/380 ratio) originating from individual GFP-positive cells were continuously monitored at a sampling frequency of 25 Hz and collected using a software package from Photon Technology International (Felix™). Conversion of the 340 nm/380 nm ratio value into [Ca^2+]i was estimated by comparing the cellular fluorescence ratio with ratios acquired using Fura-2 (free acid) in buffers containing known Ca^2+ concentrations. [Ca^2+]i was then calculated as described by Grynkiewicz, et al (Grynkiewicz, G, et al, J Biol Chem, 260: pp3440-3450, 1985). All assays were performed in assay buffers containing 1 mM EGTA to exclude measurement of calcium influx.
(§2) To address whether G2A is a lysophospholipid receptor, we examined signalling events in cells ectopically expressing G2A as functional correlates of receptor activation. […] [Ca^2+]i measurements were performed in MCF 10A cells transfected with plasmids encoding green fluorescent protein (GFP) tagged G2A (pEXV3 G2A.GFP) (Kabarowski, J H S, et al, PNAS, 97: pp12109-12114, 2000) or GFP as described (Yan Xu and Derek S. Damron, Methods in Molecular Medicine, 39: Ovarian Cancer: Methods and Protocols, pp611-619, 2000). […] Similarly, dose-dependent responses of G2A.GFP transfected cells to SPC were observed, with an EC50 of approximately 0.4 μM (FIG. 4B). […] Responses to these agonists were not affected by G2A.GFP expression (FIG. 4A, middle and lower panels).

G2A [2] = biological target: T1, G2A; experiment: Radioligand binding assay with cell homogenates of HEK 293 G2A.GFP cells; settings: for competition for binding of [3H] 16:0 LPC / [3H] SPC to G2A: radioligand 1 nM, unlabelled lipids 100 nM, HEK 293 G2A.GFP
Experimental: To characterise the binding of LPC and SPC to G2A, we performed radioligand binding assays as described previously (Xu, Y, e al, Nature Cell Biology, 2: pp261-267, 2000). [^3H] 16:0 LPC and [^3H] SPC bound to cell homogenates from G2A expressing HEK 293 cells in a time-dependent manner and reached equilibrium after 60 minutes incubation at 4° C. (FIGS. 5A and B). […] LPC and [^3H] SPC. Binding of [^3H] LPC and [^3H] […] The maximum binding capacities for LPC and SPC were approximately 1,503 fmole/10^5 cells and 1,840 fmole/10^5 cells respectively.
Binding assay HEK 293 GFP or HEK 293 G2A.GFP cells were serum starved for 20 hours and subsequently collected in PBS/EDTA. Pelleted cells were stored at −80° C. until use. Frozen cells (10^6 cells/ml) were homogenized in “binding buffer” containing 20 mM Tris-HCl pH 7.5, 100 mM NaCl, 15 mM NaF, 0.2 mM PMSF, 1 mM MgCl2 and 4 mg/ml fatty acid-free BSA in a tight-fit glass Dounce homogeniser. Assays were performed in 96-well plates in triplicate with 100 μl cell homogenate (equivalent to 10^5 cells/well). Varying amounts of [^3H] 16:0 LPC or [^3H] SPC were added to cell homogenates in 50 μl of binding buffer in the presence or absence of cold 16:0 LPC or SPC, or other competitors. Plates were incubated at 4° C. for 2 hours, or for the indicated times. Cell-bound [^3H] LPC or [^3H] SPC was collected onto a filter (Printed Filtermat A, Wallac, Gaithersburg, Md.) using an automated cell harvester (HARVESTER 96, Tomtec, Orange, Conn.). A pause wash programme (five cycle washes) was used. Filters were presoaked in 1% polyethyleneimine (Sigma) to prevent nonspecific binding, dried, sealed in bags (Sample Bag, Wallac) with 4.5 ml Betaplate “Scint” scintillation cocktail (Wallac), and counted in a 1450 Microbeta Trilux Liquid Scintillation and Luminescence Counter (Wallac). Specific binding was calculated by subtraction of nonspecific binding (binding detected in the presence of 100-fold excess unlabelled lipid) from total binding.

MCF 10A cells = experiment: Calcium assay ([Ca2+]i, Fura-2) in parental or pEXV3 GFP transfected MCF 10A cells (control); type: cell-based, human; settings: SPC or LPC up to 10 μM, LPA 1 μM, PAF 0.1 μM, ATP 20 μM
Experimental: as §1, §2

G2A.GFP fusion receptor = biological target: T2, G2A.GFP fusion receptor (Mus musculus, UniProt Q9Z282); experiment: Internalisation of G2A.GFP in HEK 293 G2A.GFP cells (confocal microscopy); type: cell-based; settings: lipid 0.1 μM, 2 hours, serum starved HEK 293 G2A.GFP cells
T2 construct: expressed in transfected cells; host or cells: HEK 293 cells infected with amphotropic MSCV G2A.GFP retrovirus
T2 sequence (Q9Z282 1-382): T1 sequence (Q9Z282 1-382)
Experimental: Agonist dependent receptor internalisation is a feature of GPCRs. G2A.GFP expressing HEK 293 cells (HEK 293 G2A.GFP) were generated by infection with amphotropic MSCV G2A.GFP retroviruses. In serum starved HEK 293 G2A.GFP cells, G2A.GFP is expressed predominantly on the plasma membrane. LPC (0.1 μM), as well as SPC (1 μM), induced internalisation of G2A.GFP in over 90% of cells (FIG. 6). Neither LPA, S-1-P or PAF induced G2A internalisation, which is consistent with LPC acting as a specific ligand for G2A. Treatment of HEK 293 G2A.GFP cells with SPC at low concentrations (0.1 μM) induced receptor internalisation in fewer cells (<50%).
HEK 293 G2A.GFP cells were seeded onto glass coverslips and subsequently serum starved for 16-24 hours prior to treatment with lipids. Two hours following lipid treatment, coverslips were washed with cold PBS and fixed with PBS/4% paraformaldehyde. Subcellular localisation of G2A.GFP was visualised under a confocal fluorescence microscope with a 60× oil immersion lens.

[3] = G2A.GFP transfected MCF 10A cells
[4] = G2A.GFP-transfected MCF 10A cells
[5] = PTX 100 ng/ml, 16 hours, G2A.GFP-transfected MCF 10A cells
[6] = BN 52021 200 μM pretreatment, G2A.GFP-transfected MCF 10A cells

lysophosphatidyc acid [LPA]
transient increase in [Ca2+]i (G2A [1]; [3]): transient elevations | competition for binding of [3H] 16:0 LPC / [3H] SPC to G2A (G2A [2]): not | [Ca2+]i response in control cells (MCF 10A cells): transient elevations

CCCCCCCCCCCCC/C=C/[C@@H](O)[C@@H](N)COP(=O)([O-])OCC[N+](C)(C)C [SPC, sphingosylphosphorylcholine]
EC50 (G2A [1]; G2A.GFP transfected MCF 10A cells, 1 mM EGTA in buffer, read-out: EC50 of dose-dependent increase in [Ca2+]i): ~400 nM | transient increase in [Ca2+]i (G2A [1]; [3]): induced a transient increase in [Ca^2+], albeit to a lesser extent; also recorded: induce transient [Ca^2+], increases | desensitisation to subsequent stimulation with LPC or SPC (1 μM) (G2A [1]; [4]): induced homologous and heterologous desensitisation; also recorded: induces desensitisation | Kd (G2A [2]; Scatchard analysis, saturation binding of [3H] 16:0 LPC or [3H] SPC, HEK 293 G2A.GFP cell homogenate, 4° C., read-out: dissociation constant (Kd)): 229 nM | competition for binding of [3H] 16:0 LPC / [3H] SPC to G2A (G2A [2]): competed for binding | maximum binding capacity (G2A [2]; saturation binding, HEK 293 G2A.GFP cell homogenate): ~1,840 fmole/10^5 cells | [Ca2+]i response in control cells (MCF 10A cells): Neither parental or pEXV3 GFP transfected cells responded | cells with internalisation of G2A.GFP (G2A.GFP fusion receptor): < 50%

CCCCCCCCCCCCCC(=O)OC[C@@H](O)COP(=O)([O-])OCC[N+](C)(C)C [14:0 LPC]
competition for binding of [3H] 16:0 LPC / [3H] SPC to G2A (G2A [2]): not and not able to compete

sphingomyelin [SM]
competition for binding of [3H] 16:0 LPC / [3H] SPC to G2A (G2A [2]): not

Nc1ncnc2c1ncn2[C@@H]1O[C@H](COP(=O)(O)OP(=O)(O)OP(=O)(O)O)[C@@H](O)[C@H]1O [ATP]
transient increase in [Ca2+]i (G2A [1]; [3]): transient elevations | [Ca2+]i response in control cells (MCF 10A cells): transient elevations

CCCCCCCCCCCCCCCC(=O)OC[C@@H](O)COP(=O)([O-])OCC[N+](C)(C)C [16:0 LPC]
desensitisation to subsequent stimulation with LPC or SPC (1 μM) (G2A [1]; [4]): induces desensitisation | competition for binding of [3H] 16:0 LPC / [3H] SPC to G2A (G2A [2]): potent competitors

CCCCCCCCCCCCCCCCOC[C@H](COP(=O)([O-])OCC[N+](C)(C)C)OC(C)=O [PAF]
transient increase in [Ca2+]i (G2A [1]; [3]): transient elevations | competition for binding of [3H] 16:0 LPC / [3H] SPC to G2A (G2A [2]): not | [Ca2+]i response in control cells (MCF 10A cells): transient elevations

Pertussis Toxin [PTX]
effect of pretreatment on [Ca2+]i increases induced by LPA (1 μM), LPC (0.1 μM-5 μM) and SPC (1 μM-5 μM) (G2A [1]; [5]): inhibits | effect of pretreatment on [Ca2+]i increases induced by PAF (0.1 μM) or ATP (20 μM) (G2A [1]; [5]): not

CCCCCCCCCCCCCCCCOC[C@@H](O)COP(=O)([O-])OCC[N+](C)(C)C [lyso-PAF]
competition for binding of [3H] 16:0 LPC / [3H] SPC to G2A (G2A [2]): not

lysophosphatidylinositol [LPI]
competition for binding of [3H] 16:0 LPC / [3H] SPC to G2A (G2A [2]): not

CCCCCCCCCCCCCC(=O)O[C@@H]1[C@@H](C)[C@@]2(O)[C@@H](C=C(CO)C[C@]3(O)C(=O)C(C)=C[C@@H]23)[C@@H]2C(C)(C)[C@]12OC(C)=O [PMA, Phorbol 12-myristate 13-acetate]
effect of pretreatment on [Ca2+]i increases induced by LPA, LPC and SPC (up to 10 μM) (G2A [1]; PMA 100 nM (b23 prints 0.1 mM), 5 minutes, G2A.GFP-transfected MCF 10A cells): abolished; also recorded: inhibits | effect of pretreatment on [Ca2+]i increases induced by PAF (0.1 μM) and ATP (20 μM) (G2A [1]; PMA 100 nM, 5 minutes, G2A.GFP-transfected MCF 10A cells): did not affect

CCCCCCCCCCCCC/C=C/[C@@H](O)[C@@H](N)COP(=O)(O)O [S-1-P]
competition for binding of [3H] 16:0 LPC / [3H] SPC to G2A (G2A [2]): not

CCCCCCCCCCCCCCCCCC(=O)OC[C@@H](O)COP(=O)([O-])OCC[N+](C)(C)C [18:0 LPC]
competition for binding of [3H] 16:0 LPC / [3H] SPC to G2A (G2A [2]): potent competitors

CC1C(=O)OC2C(O)C34C5CC(C(C)(C)C)C36C(OC(=O)C6O)OC4(C(=O)O5)C12O (stereo not drawn) [BN 52021]
effect of pretreatment on [Ca2+]i increase induced by LPC (1 μM), SPC (1 μM), LPA (1 μM) or ATP (20 μM) (G2A [1]; [6]): not | effect of pretreatment on [Ca2+]i increase induced by PAF (G2A [1]; [6]): completely blocked
